Test results: patent publication US20060069038A1, “Irreversible caspase-3 inhibitors as active site probes” (priority 2003, published 2006)

How the values were obtained:
active caspases = assay: [125I]-M808 labeling of active caspases in rat tissue protein extracts; format: binding
Method: Tissues (rat liver, kidney, brain, thymus, mouse thymus) were either frozen or processed within 20 minutes of their removal. Rat tissues and cultured cells were homogenized in ice cold cell lysis buffer (50 mM Tris-Cl pH 7.5, 2 mM EDTA, 1% NP-40) supplemented with 5 mM DTT and Complete protease inhibitor cocktail (Roche). Thymi from mice injected with [^125I]-M808 were homogenized in lysis buffer supplemented with 25 μM of M808. Nuclear debris was removed by centrifugation at 13000 rpm for 10 min and the soluble fraction quantitated by Bradford assay (Bio-Rad). Caspase-3 like activity was determined with the fluorogenic substrate Ac-DEVD-AMC as described by Roy et al. (2001) Proc. Nat. Acad. Sci. USA 98: 6132-6137.
The determination of caspase activity by [^125I]-M808 labeling was performed by pre-incubating purified recombinant human caspase-3 with indicated amounts of caspase inhibitor (M791) or vehicle (DMSO), for 1 hour at 25° C. in ICE buffer III (50 mM Hepes-KOH pH 7.0, 0.1% CHAPS, 10% sucrose, 2 mM EDTA), supplemented with 5 mM DTT. [^125I]-M808 was added to a final concentration of 1.25 μM and incubated for 5 min at 25° C. Active caspases in tissue or cell extracts were labeled by incubating 60-80 μg of lysate with [^125I]-M808 for 15 minutes at 25° C. […]

caspase-3 = target: T1, caspase-3 (Rattus norvegicus, UniProt P55213); assay: Saturation labeling of caspases in protein extracts of thymi from CLP-operated rats dosed with M867; format: binding; conditions: low specific activity probe, 80 μg rat thymus extract
T1 construct: endogenous in cells; host or cells: primary rat thymocytes (Sprague-Dawley), spontaneous apoptosis in culture
T1 sequence (P55213 29-175 limits assumed): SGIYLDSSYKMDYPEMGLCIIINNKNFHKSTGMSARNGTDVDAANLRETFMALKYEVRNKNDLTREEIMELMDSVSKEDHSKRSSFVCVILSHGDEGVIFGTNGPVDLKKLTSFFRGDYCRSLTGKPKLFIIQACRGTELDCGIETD
T1 sequence (P55213 176-277 limits assumed): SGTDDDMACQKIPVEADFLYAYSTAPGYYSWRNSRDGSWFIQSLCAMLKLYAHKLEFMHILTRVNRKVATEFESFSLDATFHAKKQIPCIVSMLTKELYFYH
Method: FIG. 7. Comparison of p17 caspase labeled with [^125I]-M808 for a short or a long incubation period. Septic rats were dosed intravenously with either vehicle or the indicated concentration of M867. Thymi were collected 24 hours post-CLP surgery. Western blot showing the appearance of cleaved p17 caspase-3. Partial caspase-3 labeling with high specific activity probe for 5 minutes. Saturated [^125I]-M808 labeling of active caspases in the same thymi extracts with low specific activity probe for 3 hours or 18 hours. During the long incubation period, M867 originally present on caspase-3 (seen from low or absent labeling) dissociates from the active site and is replaced by the irreversible active site probe [^125I]-M808. Displacement is essentially complete by 3 hours since no change in labeling intensity was observed between a 3 h and 18 h incubation period at 37° C.
Quantitation of total amount of active caspase can be determined by exposing protein extracts from either cultured cells (Jurkats, thymocytes) of CLP-derived rat thymi to low-specific activity [^125I]-M808 for long period of time. Briefly, 80 μg of rat thymus protein extracts from CLP-operated rats dosed with M867, were incubated for 3 hours or 18 hours with 1250 M808 (5 nM at 2000 Ci/mmole) and M808 (395 nM). […]

Row | incubation time sufficient to label all active caspase-3 quantitatively (caspase-3) | Compound | recognition of active caspases in injured tissue extracts (active caspases; HI neonatal rat brain, infarcted rat heart, septic rat thymi extracts) | effect on [125I]-M808 labeling when added to extract prior to probe (active caspases; granzyme-B treated rat tissue extracts, FIG. 2A lanes 6-9)
1 | 3 h | COc1ccc(I)cc1CC(=O)N[C@H](C(=O)NC(CC(=O)O)C(=O)CF)C(C)C (stereo partly drawn) [[^125I]-M808, 5-fluoro-3-({N-[(5-iodo-2-methoxyphenyl)acetyl]-L-valyl}amino)-4-oxopentanoic acid] | specifically recognizes active caspases in several types of injured tissues | –
2 | – | COc1ccc(-c2nc(C)no2)cc1CC(=O)N[C@H](C(=O)N[C@@H](CC(=O)O)C(=O)CSCc1ccccc1)C(C)C [Example M791, (3S)-5-(benzylthio)-3-[(N-{[2-methoxy-5-(3-methyl-1,2,4-oxadiazol-5-yl)phenyl]acetyl}-L-valyl)amino]4-oxopentanoic acid] | – | No radiolabeling (lanes 6-8) or strongly reduced labeling (lane 9)
